Tested on: Lewis-Brown Norway F1 hybrid cardiac allografts in Lewis rat recipients
Test: Acute cardiac allograft rejection model in rats (procedure of Kupiec-Weglinski)
Assay type: in vivo
Conditions: for GRAFT SURVIVAL (days) MEAN ± SD: N=7
Experimental: The therapeutic efficacy of a pharmaceutical composition of the invention was tested according to the procedure of Kupiec-Weglinski, J. W., et al., (1988) Transplant Proc. 2:207-216 (hereinafter "Kupiec-Weglinski") to determine its in vivo potency as an acute transplantation/graft rejection modulator.
Briefly, to preform these experiments, the following protocol was employed. Male inbred adult rats (Lewis-Brown Norway F1 Hybrid rats, obtained from Harlan sprague-Dawley Inc., Indianapolis, Ind.) were used. Lewis-Brown Norway F1 Hybrid cardiac allografts were transplanted to the abdominal great vessels of Lewis recipients. The animals were administered compounds according to the following five distinct regimens.
Protocol I. Pretreatment Protocol--20 mg/kg/day of Compound A was administered orally for 7 consecutive days prior to transplantation (days -7 to -1).
Protocol II Treatment Protocol--20 mg/kg/day of Compound A was administered orally for 7 consecutive post-transplant days (days 0-6) followed by intermittent 5 day courses (days 9-13 and 16-20).
Protocol III Pretreatment and Treatment Protocol--20 mg/kg/day of Compound A was administered orally for 7 consecutive days prior to transplantation (days -7 to -1) followed by intermittent 5 day courses (days 9-13 and 16-20).
Ventricular contractions were assessed daily by palpation through the recipient flank. Rejection was defined as the day of cessation of myocardial contractions and confirmed histologically.

CCCC1(CCC)CCC2(CCN(CCCN(C)C)C2)CC1 [Compound A, N,N-dimethyl-8,8-dipropyl-2-azaspiro[4,5]-decane-2-propanamine]
GRAFT SURVIVAL (days) MEAN ± SD (Protocol I pretreatment: 20 mg/kg/day orally, days -7 to -1): 14.7 ± 5.8 days
GRAFT SURVIVAL (days) MEAN ± SD (Protocol II treatment: 20 mg/kg/day orally, days 0-6, then days 9-13 and 16-20): 16.7 ± 2.0 days
GRAFT SURVIVAL (days) MEAN ± SD (Protocol III pretreatment and treatment: 20 mg/kg/day orally, days -7 to -1, then days 9-13 and 16-20): 16.0 ± 4.3 days
average graft survival time (single compound protocols (pretreatment, treatment or both), 20 mg/kg/day orally, untreated average 7 days): 16 days
